Results reported in US8598200B2, “KAT II inhibitors” (Pfizer Inc., priority 2010, dated 2013).

molecular target: human KAT II (hKAT II) enzyme (Homo sapiens (Human), UniProt Q8N5Z0); assay: KAT II Inhibition Spectra Assay; type: biochemical; details: decrease in OD370, L-kynurenine substrate, 37° C. for 15-20 h; values marked ^1 are the average of 2 IC50 determinations; read-out: KATII IC50 (nM; single determination unless otherwise indicated)
Protocol: Formation of kynurenic acid (KYNA) is indirectly assessed by a decrease in light absorbance at 370 nm (OD370) as the L-kynurenine (KYN) substrate is converted by the human KAT II (hKAT II) enzyme into KYNA. An inhibitor would therefore inhibit the decrease in OD370.
The protocol was performed by placing the following reagents into a Costar 384 well black plate (30 μL total assay volume/well): • 10 μL of 3× concentrated compound; • 10 μL of 3× concentrated substrate mix (BGG (Sigma G-5009); 3 mM L-Kynurenine in 150 mM Tris Acetate (Sigma K3750); 3 mM α-ketoglutaric acid in 150 mM Tris Acetate (Sigma K2010); and 210 μM pyridoxal 5-phosphate (PLP) in 150 mM Tris Acetate (Sigma 9255)); and • 10 μL of 3× concentrated enzyme (15 nM enzyme in 150 mM Tris Acetate with 0.3% bovine serum).
Plates were sealed and incubated at 37° C. for 15-20 h before reading OD370 on a SpectraMax Plus plate reader. IC50s were generated by comparing the efficacy of compounds across a concentration range to inhibit a reduction in the OD370 value relative to assay wells with DMSO added in place of concentrated compound. Biological data for the Examples may be found in Table 2.

human KAT II (hKAT II) enzyme, sequence (Q8N5Z0 30-425): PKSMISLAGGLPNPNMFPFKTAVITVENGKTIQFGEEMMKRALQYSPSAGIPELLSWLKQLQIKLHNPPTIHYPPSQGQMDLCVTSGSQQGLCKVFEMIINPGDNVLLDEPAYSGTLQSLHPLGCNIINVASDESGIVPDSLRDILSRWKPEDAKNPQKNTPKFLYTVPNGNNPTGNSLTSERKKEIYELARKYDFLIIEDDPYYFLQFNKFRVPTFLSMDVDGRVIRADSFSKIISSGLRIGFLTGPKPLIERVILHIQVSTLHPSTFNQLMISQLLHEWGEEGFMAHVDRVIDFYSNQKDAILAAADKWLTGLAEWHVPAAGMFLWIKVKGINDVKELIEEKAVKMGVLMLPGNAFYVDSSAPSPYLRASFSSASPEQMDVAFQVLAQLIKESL

Compound | IC50 [nM]
COc1ccccc1Cn1cc2c(n1)N(O)C(=O)[C@@H](N)C2 [Example 10, (5S)-5-amino-7-hydroxy-2-(2-methoxybenzyl)-2,4,5,7-tetrahydro-6H-pyrazolo[3,4-b]pyridin-6-one] | 50.2
N[C@H]1Cc2cn(Cc3ccc4ccccc4c3)nc2N(O)C1=O [Example 9, (5S)-5-amino-7-hydroxy-2-(2-naphthylmethyl)-2,4,5,7-tetrahydro-6H-pyrazolo[3,4-b]pyridin-6-one] | 117
CC(C)n1cc2c(n1)N(O)C(=O)[C@@H](N)C2 [Example 20, (5S)-5-amino-7-hydroxy-2-isopropyl-2,4,5,7-tetrahydro-6H-pyrazolo[3,4-b]pyridin-6-one] | 153
Cn1nc(Cc2ccccc2)c2c1N(O)C(=O)[C@@H](N)C2 [Example 2, (5S)-5-Amino-3-benzyl-7-hydroxy-1-methyl-1,4,5,7-tetrahydro-6H-pyrazolo[3,4-b]pyridin-6-one] | 63.7
N[C@H]1Cc2c(c(C(F)(F)F)nn2Cc2ccccc2)N(O)C1=O [Example 5, (6S)-6-Amino-1-benzyl-4-hydroxy-3-(trifluoromethyl)-1,4,6,7-tetrahydro-5H-pyrazolo[4,3-b]pyridin-5-one] | 42.7
N[C@H]1Cc2nn(Cc3ccccc3)cc2N(O)C1=O [Example 13, (6S)-6-amino-2-benzyl-4-hydroxy-2,4,6,7-tetrahydro-5H-pyrazolo[4,3-b]pyridin-5-one] | 182
N[C@H]1Cc2cn(C3CCC3)nc2N(O)C1=O [Example 19, (5S)-5-amino-2-cyclobutyl-7-hydroxy-2,4,5,7-tetrahydro-6H-pyrazolo[3,4-b]pyridin-6-one] | 81.3
Cn1nc2c(c1Cc1cccc(C(F)(F)F)c1)C[C@H](N)C(=O)N2O [Example 25, (5S)-5-amino-7-hydroxy-2-methyl-3-[3-(trifluoromethyl)benzyl]-2,4,5,7-tetrahydro-6H-pyrazolo[3,4-b]pyridin-6-one] | 42.2
COc1cccc(Cc2nn(C)c3c2C[C@H](N)C(=O)N3O)c1 [Example 22, (5S)-5-amino-7-hydroxy-3-(3-methoxybenzyl)-1-methyl-1,4,5,7-tetrahydro-6H-pyrazolo[3,4-b]pyridin-6-one] | 65.6
N[C@H]1Cc2cn(-c3cccc(C(F)(F)F)c3)nc2N(O)C1=O [Example 7, (5S)-5-Amino-7-hydroxy-2-[3-(trifluoromethyl)phenyl]-2,4,5,7-tetrahydro-6H-pyrazolo[3,4-b]pyridin-6-one] | 74.7
Cc1c2c(nn1-c1ccccc1)C[C@H](N)C(=O)N2O [Example 17, (6S)-6-amino-4-hydroxy-3-methyl-2-phenyl-2,4,6,7-tetrahydro-5H-pyrazolo[4,3-b]pyridin-5-one] | 2010
CC(C)n1nc2c(c1Cc1ccccc1)C[C@H](N)C(=O)N2O [Example 24, (5S)-5-amino-3-benzyl-7-hydroxy-2-isopropyl-2,4,5,7-tetrahydro-6H-pyrazolo[3,4-b]pyridin-6-one] | 63
COc1ccc(Cc2nn(C)c3c2C[C@H](N)C(=O)N3O)cc1 [Example 21] | 440
N[C@H]1Cc2cn(Cc3ccccc3)nc2N(O)C1=O [Example 1, (5S)-5-Amino-2-benzyl-7-hydroxy-2,4,5,7-tetrahydro-6H-pyrazolo[3,4-b]pyridin-6-one] | 59.4
Cn1ncc2c1N(O)C(=O)[C@@H](N)C2 [Example 18, (5S)-5-amino-7-hydroxy-1-methyl-1,4,5,7-tetrahydro-6H-pyrazolo[3,4-b]pyridin-6-one] | 329
Cc1c2c(nn1Cc1ccccc1)N(O)C(=O)[C@@H](N)C2 [Example 12, (5S)-5-amino-2-benzyl-7-hydroxy-3-methyl-2,4,5,7-tetrahydro-6H-pyrazolo[3,4-b]pyridin-6-one] | 81.6
N[C@H]1Cc2cn(Cc3ccc(OC(F)(F)F)cc3)nc2N(O)C1=O [Example 6, (5S)-5-Amino-7-hydroxy-2-[4-(trifluoromethoxy)benzyl]-2,4,5,7-tetrahydro-6H-pyrazolo[3,4-b]pyridin-6-one] | 43.6

These reach a lower IC50. Values come first.

IC50 [nM] | Compound
22.5 | N[C@H]1Cc2c(cnn2Cc2ccccc2)N(O)C1=O [Example 4, (6S)-6-Amino-1-benzyl-4-hydroxy-1,4,6,7-tetrahydro-5H-pyrazolo[4,3-b]pyridin-5-one]
8.93 | COc1cccc(Cn2cc3c(n2)N(O)C(=O)[C@@H](N)C3)c1 [Example 11, (5S)-5-amino-7-hydroxy-2-(3-methoxybenzyl)-2,4,5,7-tetrahydro-6H-pyrazolo[3,4-b]pyridin-6-one]
37 | Cn1nc2c(c1Cc1ccc(C(F)(F)F)cc1)C[C@H](N)C(=O)N2O [Example 27, (5S)-5-amino-7-hydroxy-2-methyl-3-[4-(trifluoromethyl)benzyl]-2,4,5,7-tetrahydro-6H-pyrazolo[3,4-6]pyridin-6-one]
40.7 | Cn1nc2c(c1Cc1ccccc1C(F)(F)F)C[C@H](N)C(=O)N2O [Example 26, (5S)-5-amino-7-hydroxy-2-methyl-3-[2-(trifluoromethyl)benzyl]-2.4,5,7-tetrahydro-6H-pyrazolo[3,4-b] pyridin-6-one]
36 | N[C@H]1Cc2cn(Cc3cccc4ccccc34)nc2N(O)C1=O [Example 8, (5S)-5-amino-7-hydroxy-2-(1-naphthylmethyl)-2,4,5,7-tetrahydro-6H-pyrazolo[3,4-b]pyridin-6-one]
24.3 | CCn1nc2c(c1Cc1ccccc1)C[C@H](N)C(=O)N2O [Example 23, (5S)-5-amino-3-benzyl-2-ethyl-7-hydroxy-2.4,5,7-tetrahydro-6H-pyrazolo[3,4-b]pyridin-6-one]
31.6 | N[C@H]1Cc2cn(-c3ccc(C(F)(F)F)cc3)nc2N(O)C1=O [Example 29, (5S)-5-amino-7-hydroxy-2-[4-(trifluoromethyl)phenyl]-2,4,5,7-tetrahydro-6H-pyrazolo[3,4-b]pyridin-6-one]
11.5 | Cn1nc2c(c1Cc1ccccc1)C[C@H](N)C(=O)N2O [Example 3, (5S)-5-Amino-3-benzyl-7-hydroxy-2-methyl-2,4,5,7-tetrahydro-6H-pyrazolo[3,4-b]pyridin-6-one]
28.3 | COc1ccc(Cn2cc3c(n2)N(O)C(=O)[C@@H](N)C3)cc1 [Example 15, (5S)-5-amino-7-hydroxy-2-(4-methoxybenzyl)-2,4,5,7-tetrahydro-6H-pyrazolo[3,4-b]pyridin-6-one]
24.3 | N[C@H]1Cc2cn(-c3ccccc3)nc2N(O)C1=O [Example 14, (5S)-5-amino-7-hydroxy-2-phenyl-2,4,5,7-tetrahydro-6H-pyrazolo[3,4-b]pyridin-6-one]
38.8 | N[C@H]1Cc2cn(-c3ccccc3C(F)(F)F)nc2N(O)C1=O [Example 28, (5S)-5-amino-7-hydroxy-2-[2-(trifluoromethyl)phenyl]-2,4,5,7-tetrahydro-6H-pyrazolo[3,4-b]pyridin-6-one]
